Bridge positions count the residues as written; N and C are the ends. Square brackets hold non-standard residues; d marks the D form. Peptide text beside a SMILES is read from it. * marks the point of attachment. ξ: configuration not given here. Phe(4-CF3) = N[C@@H](Cc1ccc(C(F)(F)F)cc1)C(=O)O; Phe(4-COOH) = N[C@@H](Cc1ccc(C(=O)O)cc1)C(=O)O; Bip = N[C@@H](Cc1ccc(-c2ccccc2)cc1)C(=O)O; NH(CH2)14COOH = O=C(O)CCCCCCCCCCCCCCN*; Phe(3-Me) = Cc1cccc(C[C@H](N)C(=O)O)c1; NH(CH2)12COOH = O=C(O)CCCCCCCCCCCCN*; Val(3-OH) = CC(C)(O)[C@H](N)C(=O)O; Cha = N[C@@H](CC1CCCCC1)C(=O)O; Thr(3ξ) = CC(O)[C@H](N)C(=O)O; Carboxymethyl = O=C(O)C*; Nle = CCCC[C@H](N)C(=O)O; Orn = NCCC[C@H](N)C(=O)O; Aun = NCCCCCCCCCCC(=O)O; Dab = NCC[C@H](N)C(=O)O; Nva = CCC[C@H](N)C(=O)O; Abu = CC[C@H](N)C(=O)O; AEEA = NCCOCCOCC(=O)O

In this test the target is T1, PD-1/PD-L1 interaction (PE-labeled human PD-L1-Ig binding to Jurkat cell line over-expressing human PD-1) (Homo sapiens, UniProt Q15116).
T1 construct: expressed in transfected cells; host or cells: Jurkat
T1 sequence (Q15116 25-288): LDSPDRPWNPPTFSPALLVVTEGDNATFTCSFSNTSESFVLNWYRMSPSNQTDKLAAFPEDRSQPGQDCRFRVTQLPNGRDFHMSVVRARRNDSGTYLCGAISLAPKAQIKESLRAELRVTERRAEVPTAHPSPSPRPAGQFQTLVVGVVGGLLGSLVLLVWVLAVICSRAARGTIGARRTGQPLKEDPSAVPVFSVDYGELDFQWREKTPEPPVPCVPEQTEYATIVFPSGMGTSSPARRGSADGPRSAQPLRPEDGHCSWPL
Description: Jurkat-PD-1 Cell Binding High-Content Screening Assay (CBA). The test is classed as cell-based. The note with it: Jurkat cell line over-expressing human PD-1; PE-labeled PD-L1-Ig 20 nM final; read-out: Jurkat hPD1-PDL1 IC50. The procedure, abridged: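 Human PD-L1-Ig carrying a covalent PE label on its Ig tag serves as the probe, applied at 20 nM final to compound-treated (2 h, 37° C) Jurkat-hPD-1 cells in medium with 10% fetal calf serum. After one hour, fixation and nuclear staining precede high-content image analysis.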
By IC50 is commonly meant the point on the concentration scale where inhibition reaches its midpoint. On to `CCC[C@@H]1NC(=O)CSC[C@@H](C(=O)N[C@@H](CCN)C(=O)NCCOCCOCC(=O)NCCCCCCCCCCC(=O)O)NC(=O)[C@H](Cc2cnc[nH]2)NC(=O)[C@H](C(C)C)NC(=O)[C@H](CC2CCCCC2)NC(=O)[C@H](CCN)NC(=O)[C@@H](CC(C)C)NC(=O)[C@H](CCCN)NC(=O)[C@H](Cc2ccc(OCC(=O)O)cc2)NC(=O)[C@H](Cc2ccc(-c3ccccc3)cc2)NC(=O)[C@H](Cc2ccc(OCC(=O)O)cc2)NC(=O)[C@H](Cc2cccc(C)c2)NC(=O)[C@H](CC(=O)O)NC(=O)[C@H](Cc2ccc(OCC(=O)O)cc2)NC1=O` [Compound 3803] ({CH2CO}-[Nva]Y(Carboxymethyl)D[Phe(3-Me)]Y(Carboxymethyl)[Bip]Y(Carboxymethyl)[Orn][dL][Dab][Cha]VHC[Dab][AEEA][Aun]-OH; thioether N-14), for which the IC50 stood at 2.7 nM. Take `CCC[C@@H]1NC(=O)CSC[C@@H](C(=O)N[C@@H](CCN)C(=O)NCCOCCOCC(=O)NCCCCCCCCCCC(=O)O)NC(=O)[C@H](CC(=O)O)NC(=O)[C@H](C(C)C)NC(=O)[C@H](CC2CCCCC2)NC(=O)[C@H](CCN)NC(=O)[C@@H](CC(C)C)NC(=O)[C@H](CCCN)NC(=O)[C@H](Cc2ccc(OCC(=O)O)cc2)NC(=O)[C@H](Cc2ccc(-c3ccccc3)cc2)NC(=O)[C@H](Cc2ccc(OCC(=O)O)cc2)NC(=O)[C@H](Cc2cccc(C)c2)NC(=O)[C@H](CC(=O)O)NC(=O)[C@H](Cc2ccc(OCC(=O)O)cc2)NC1=O` [Compound 3804] ({CH2CO}-[Nva]Y(Carboxymethyl)D[Phe(3-Me)]Y(Carboxymethyl)[Bip]Y(Carboxymethyl)[Orn][dL][Dab][Cha]VDC[Dab][AEEA][Aun]-OH; thioether N-14): the IC50 was 0.2 nM. As for `Cc1cccc(C[C@@H]2NC(=O)[C@H](CC(=O)O)NC(=O)[C@H](Cc3ccc(OCC(=O)O)cc3)NC(=O)[C@H](CCN)NC(=O)CSC[C@@H](C(=O)N[C@@H](CCN)C(=O)NCCOCCOCC(=O)NCCCCCCCCCCC(=O)O)NC(=O)[C@H](Cc3cnc[nH]3)NC(=O)[C@H](C(C)O)NC(=O)[C@H](CC3CCCCC3)NC(=O)[C@H](CCN)NC(=O)[C@@H](CC(C)C)NC(=O)[C@H](CCCN)NC(=O)[C@H](Cc3ccc(OCC(=O)O)cc3)NC(=O)[C@H](Cc3ccc(-c4ccccc4)cc3)NC(=O)[C@H](Cc3ccc(OCC(=O)O)cc3)NC2=O)c1` (stereo partly drawn) [Compound 3805] ({CH2CO}-[Dab]Y(Carboxymethyl)D[Phe(3-Me)]Y(Carboxymethyl)[Bip]Y(Carboxymethyl)[Orn][dL][Dab][Cha][Thr(3ξ)]HC[Dab][AEEA][Aun]-OH; thioether N-14), the IC50 came to 1.2 nM.

Regarding `Cc1cccc(C[C@@H]2NC(=O)[C@H](CC(=O)O)NC(=O)[C@H](Cc3ccc(OCC(=O)O)cc3)NC(=O)[C@H](C(C)O)NC(=O)CSC[C@@H](C(=O)N[C@@H](CCN)C(=O)NCCOCCOCC(=O)NCCCCCCCCCCC(=O)O)NC(=O)[C@H](CCC(=O)O)NC(=O)[C@H](C(C)C)NC(=O)[C@H](CC3CCCCC3)NC(=O)[C@H](CCN)NC(=O)[C@@H](CC(C)C)NC(=O)[C@H](CCCN)NC(=O)[C@H](Cc3ccc(OCC(=O)O)cc3)NC(=O)[C@H](Cc3ccc(-c4ccccc4)cc3)NC(=O)[C@H](Cc3ccc(OCC(=O)O)cc3)NC2=O)c1` (stereo partly drawn) [Compound 3806] ({CH2CO}-[Thr(3ξ)]Y(Carboxymethyl)D[Phe(3-Me)]Y(Carboxymethyl)[Bip]Y(Carboxymethyl)[Orn][dL][Dab][Cha]VEC[Dab][AEEA][Aun]-OH; thioether N-14), the IC50 amounted to 5.2 nM. For `CCC[C@@H]1NC(=O)CSC[C@@H](C(=O)N[C@@H](CCN)C(=O)NCCOCCOCC(=O)NCCCCCCCCCCC(=O)O)NC(=O)[C@H](CCC(=O)O)NC(=O)[C@H](CO)NC(=O)[C@H](CC2CCCCC2)NC(=O)[C@H](CCN)NC(=O)[C@@H](CC(C)C)NC(=O)[C@H](CCCN)NC(=O)[C@H](Cc2ccc(OCC(=O)O)cc2)NC(=O)[C@H](Cc2ccc(-c3ccccc3)cc2)NC(=O)[C@H](Cc2ccc(OCC(=O)O)cc2)NC(=O)[C@H](Cc2cccc(C)c2)NC(=O)[C@H](CC(=O)O)NC(=O)[C@H](Cc2ccc(OCC(=O)O)cc2)NC1=O` [Compound 3807] ({CH2CO}-[Nva]Y(Carboxymethyl)D[Phe(3-Me)]Y(Carboxymethyl)[Bip]Y(Carboxymethyl)[Orn][dL][Dab][Cha]SEC[Dab][AEEA][Aun]-OH; thioether N-14), the IC50 was determined as 20.4 nM.

`CCCC[C@@H]1NC(=O)CSC[C@@H](C(=O)N[C@@H](CCN)C(=O)NCCOCCOCC(=O)NCCOCCOCC(=O)NCCCCCCCCCCCCC(=O)O)NC(=O)[C@H](CCC(=O)O)NC(=O)[C@H](C(C)C)NC(=O)[C@H](CC2CCCCC2)NC(=O)[C@H](CCN)NC(=O)[C@@H](CC(C)C)NC(=O)[C@H](CCCN)NC(=O)[C@H](Cc2ccc(C(=O)O)cc2)NC(=O)[C@H](Cc2ccc(-c3ccccc3)cc2)NC(=O)[C@H](Cc2ccc(C(=O)O)cc2)NC(=O)[C@H](Cc2cccc(C)c2)NC(=O)[C@H](CC(=O)O)NC(=O)[C@H](Cc2ccc(OCC(=O)O)cc2)NC1=O` [Compound 3809] ({CH2CO}-[Nle]Y(Carboxymethyl)D[Phe(3-Me)][Phe(4-COOH)][Bip][Phe(4-COOH)][Orn][dL][Dab][Cha]VEC[Dab][AEEA][AEEA]-{NH(CH2)12COOH}; thioether N-14): the IC50 was found to be 15.4 nM.

For `Cc1cccc(C[C@@H]2NC(=O)[C@H](CC(=O)O)NC(=O)[C@H](Cc3ccc(OCC(=O)O)cc3)NC(=O)[C@H](C(C)O)NC(=O)CSC[C@@H](C(=O)N[C@@H](CCN)C(=O)NCCCCCCCCCCCCC(=O)O)NC(=O)[C@H](CO)NC(=O)[C@H](C(C)(C)O)NC(=O)[C@H](CC3CCCCC3)NC(=O)[C@H](CCN)NC(=O)[C@@H](CC(C)C)NC(=O)[C@H](CCCN)NC(=O)[C@H](Cc3ccc(OCC(=O)O)cc3)NC(=O)[C@H](Cc3ccc(-c4ccccc4)cc3)NC(=O)[C@H](Cc3ccc(C(F)(F)F)cc3)NC2=O)c1` (stereo partly drawn) [Compound 3810] ({CH2CO}-[Thr(3ξ)]Y(Carboxymethyl)D[Phe(3-Me)][Phe(4-CF3)][Bip]Y(Carboxymethyl)[Orn][dL][Dab][Cha][Val(3-OH)]SC[Dab]-{NH(CH2)12COOH}; thioether N-14), the half-inhibitory concentration (IC50) is 19.8 nM.

With `CC[C@@H]1NC(=O)CSC[C@@H](C(=O)N[C@@H](CCN)C(=O)NCCOCCOCC(=O)N[C@@H](CCC(=O)O)C(=O)NCCCCCCCCCCCCC(=O)O)NC(=O)[C@H](CO)NC(=O)[C@H](C(C)(C)O)NC(=O)[C@H](CC2CCCCC2)NC(=O)[C@H](CCN)NC(=O)[C@@H](CC(C)C)NC(=O)[C@H](CCCN)NC(=O)[C@H](Cc2ccc(OCC(=O)O)cc2)NC(=O)[C@H](Cc2ccc(-c3ccccc3)cc2)NC(=O)[C@H](Cc2ccc(OCC(=O)O)cc2)NC(=O)[C@H](Cc2cccc(C)c2)NC(=O)[C@H](CC(=O)O)NC(=O)[C@H](Cc2ccc(OCC(=O)O)cc2)NC1=O` [Compound 3811] ({CH2CO}-[Abu]Y(Carboxymethyl)D[Phe(3-Me)]Y(Carboxymethyl)[Bip]Y(Carboxymethyl)[Orn][dL][Dab][Cha][Val(3-OH)]SC[Dab][AEEA]E-{NH(CH2)12COOH}; thioether N-14), the IC50 was found to be 3.9 nM. The same measure for `CCCC[C@@H]1NC(=O)CSC[C@@H](C(=O)N[C@@H](CCN)C(=O)NCCOCCOCC(=O)NCCOCCOCC(=O)NCCCCCCCCCCCCC(=O)O)NC(=O)[C@H](CO)NC(=O)[C@H](C(C)(C)O)NC(=O)[C@H](CC2CCCCC2)NC(=O)[C@H](CCN)NC(=O)[C@@H](CC(C)C)NC(=O)[C@H](CCCN)NC(=O)[C@H](Cc2ccc(OCC(=O)O)cc2)NC(=O)[C@H](Cc2ccc(-c3ccccc3)cc2)NC(=O)[C@H](Cc2ccc(OCC(=O)O)cc2)NC(=O)[C@H](Cc2cccc(C)c2)NC(=O)[C@H](CC(=O)O)NC(=O)[C@H](Cc2ccc(OCC(=O)O)cc2)NC1=O` [Compound 3812] ({CH2CO}-[Nle]Y(Carboxymethyl)D[Phe(3-Me)]Y(Carboxymethyl)[Bip]Y(Carboxymethyl)[Orn][dL][Dab][Cha][Val(3-OH)]SC[Dab][AEEA][AEEA]-{NH(CH2)12COOH}; thioether N-14): 13.3 nM. For `Cc1cccc(C[C@@H]2NC(=O)[C@H](CC(=O)O)NC(=O)[C@H](Cc3ccc(OCC(=O)O)cc3)NC(=O)[C@H](CCN)NC(=O)CSC[C@@H](C(=O)N[C@@H](CCN)C(=O)NCCOCCOCC(=O)NCCOCCOCC(=O)NCCCCCCCCCCCCC(=O)O)NC(=O)[C@H](CO)NC(=O)[C@H](C(C)(C)O)NC(=O)[C@H](CC3CCCCC3)NC(=O)[C@H](CCN)NC(=O)[C@@H](CC(C)C)NC(=O)[C@H](CCCN)NC(=O)[C@H](Cc3ccc(OCC(=O)O)cc3)NC(=O)[C@H](Cc3ccc(-c4ccccc4)cc3)NC(=O)[C@H](Cc3ccc(OCC(=O)O)cc3)NC2=O)c1` [Compound 3813] ({CH2CO}-[Dab]Y(Carboxymethyl)D[Phe(3-Me)]Y(Carboxymethyl)[Bip]Y(Carboxymethyl)[Orn][dL][Dab][Cha][Val(3-OH)]SC[Dab][AEEA][AEEA]-{NH(CH2)12COOH}; thioether N-14), the half-maximal inhibitory concentration (IC50) came out at 6.9 nM. `Cc1cccc(C[C@@H]2NC(=O)[C@H](CC(=O)O)NC(=O)[C@H](Cc3ccc(OCC(=O)O)cc3)NC(=O)[C@H](CCN)NC(=O)CSC[C@@H](C(=O)N[C@@H](CCN)C(=O)NCCOCCOCC(=O)N[C@@H](CCC(=O)O)C(=O)NCCCCCCCCCCCCCCC(=O)O)NC(=O)[C@H](CO)NC(=O)[C@H](C(C)(C)O)NC(=O)[C@H](CC3CCCCC3)NC(=O)[C@H](CCN)NC(=O)[C@@H](CC(C)C)NC(=O)[C@H](CCCN)NC(=O)[C@H](Cc3ccc(OCC(=O)O)cc3)NC(=O)[C@H](Cc3ccc(-c4ccccc4)cc3)NC(=O)[C@H](Cc3ccc(OCC(=O)O)cc3)NC2=O)c1` [Compound 3814] ({CH2CO}-[Dab]Y(Carboxymethyl)D[Phe(3-Me)]Y(Carboxymethyl)[Bip]Y(Carboxymethyl)[Orn][dL][Dab][Cha][Val(3-OH)]SC[Dab][AEEA]E-{NH(CH2)14COOH}; thioether N-14): the half-maximal inhibitory concentration (IC50) was 53.4 nM.

For the origin of these results see patent publication US20260022142A1, “MACROCYCLIC IMMUNOMODULATORS” (Bristol-Myers Squibb Company, priority 2022, published 2026).
